# From article PMC7760838, “Synthesis, Biological, and Computational Evaluation of Antagonistic, Chiral Hydrobenzoin Esters of Arecaidine Targeting mAChR M1” (Pharmaceuticals, 2020)
# Assays:
# human mAChR M4 = biological target: T1, human mAChR M4 (Homo sapiens, UniProt P08173); assay: competitive radioligand binding assay with [3H]NMS on CHO cell membranes, M4; conditions: n ≥ 3, ± standard deviation, read-out: Inhibition constants (Ki) M4
# T1 construct: host or cells: CHO-K1
# T1 sequence (P08173 1-479): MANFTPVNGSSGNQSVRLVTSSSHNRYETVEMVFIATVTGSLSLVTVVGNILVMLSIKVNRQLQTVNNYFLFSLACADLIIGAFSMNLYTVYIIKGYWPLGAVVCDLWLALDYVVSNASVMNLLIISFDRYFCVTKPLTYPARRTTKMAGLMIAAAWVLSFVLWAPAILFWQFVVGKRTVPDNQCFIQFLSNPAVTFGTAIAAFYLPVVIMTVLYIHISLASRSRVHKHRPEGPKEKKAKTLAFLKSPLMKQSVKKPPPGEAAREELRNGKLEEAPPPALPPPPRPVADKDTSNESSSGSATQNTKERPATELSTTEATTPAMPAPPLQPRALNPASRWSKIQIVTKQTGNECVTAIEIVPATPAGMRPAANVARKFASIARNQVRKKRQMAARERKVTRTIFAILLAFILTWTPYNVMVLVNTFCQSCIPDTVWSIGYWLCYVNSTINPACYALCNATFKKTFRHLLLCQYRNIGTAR
# Protocol: (§1) Cell membranes bearing human mAChRs M1-M5 were prepared as described previously. In short, stably transfected CHO cells were grown to confluence in T175 flasks, washed with ice-cold DPBS, and suspended in 2 mL 10 mM Tris/HCl, 1 mM EDTA-buffer (pH 7.4), and 200 µL protease inhibitor using a cell scraper. A cell homogenate was prepared by passing the cell suspension through a G29 needle and subsequently centrifuged (10 min, 1000× g, 4 °C). Ultracentrifugation of the supernatant (30 min, 100,000× g, 4 °C) yielded a membrane pellet, which was suspended in 125 µL 50 mM Tris/HCl-buffer (pH 7.4) per T175 flask and stored at −80 °C. Ten confluent T175 flask were processed for one batch.
# (§2) The membrane-bound activity was recovered by filtration through GF/B filter paper pre-soaked in 0.1 % PEI and measured with a liquid scintillation counter. Maximum binding was measured by using 5 µL plain DMSO, and nonspecific binding was measured by using 5 µL 1 µM scopolamine in DMSO. […] Then, 3–12 µL membrane suspension were used per tube. IC50 values were calculated by a variable slope logistic regression using at least five distinct concentrations of test compound, pipetted in triplicates.
# mAChR M1 [1] = biological target: T2, mAChR M1 (Homo sapiens, UniProt P11229); assay: Fluo-4 direct calcium assay, antagonist mode (block of carbachol response), CHO-M1 cells; format: cell-based; conditions: 20 µM carbachol
# T2 construct: host or cells: CHO-K1
# T2 sequence (P11229 1-460): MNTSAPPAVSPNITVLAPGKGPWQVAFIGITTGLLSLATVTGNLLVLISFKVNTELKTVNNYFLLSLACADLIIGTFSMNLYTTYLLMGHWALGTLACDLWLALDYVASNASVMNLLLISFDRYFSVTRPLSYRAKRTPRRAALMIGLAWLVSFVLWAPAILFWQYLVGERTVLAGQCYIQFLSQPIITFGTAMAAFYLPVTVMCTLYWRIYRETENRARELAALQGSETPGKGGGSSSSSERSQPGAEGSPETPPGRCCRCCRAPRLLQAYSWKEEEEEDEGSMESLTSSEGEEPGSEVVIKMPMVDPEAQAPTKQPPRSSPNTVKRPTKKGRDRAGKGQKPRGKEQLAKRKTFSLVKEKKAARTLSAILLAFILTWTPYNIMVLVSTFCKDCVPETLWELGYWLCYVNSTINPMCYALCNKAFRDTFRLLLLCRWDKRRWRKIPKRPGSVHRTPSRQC
# Protocol: (§3) For the Fluo-4 direct^TM calcium assay kit (invitrogen), 100 µL of a 5 × 10^5 cells/mL suspension of CHO-M1 cells were seeded in black clear bottom 96-well plates (Corning). After settling of the cells for 24 h, the kit was performed according to the supplier’s recommendation. In detail, the media was removed, and 50 µL of Hanks-balanced salt solution (HBSS; Sigma Aldrich) were added, followed by 50 µL of the Fluo-4 buffer solution (including probenecid). The 96-well plates were incubated for 60 min at 37 °C in the dark. For the agonist assay, 100 µL of a double-concentrated dilution series of carbachol (positive control), 1, 2, and 3 were added with the end concentration of 100, 10, 1, 0.1, 0.01 and 0.001 µM in duplicates. The relative fluorescence was measured with an excitation wavelength of 494 nm and an emission wavelength of 516 nm. For the antagonist assay, 50 µL of a 4-fold concentrated dilution series of scopolamine hydrochloride (positive control), 1, 2, and 3 were added in duplicates. Subsequently a 40 µM stock solution of carbachol was added to all wells, and the relative fluorescence was measured with an excitation wavelength of 494 nm and an emission wavelength of 516 nm. Stock solution of 1, 2, and 3 were in DMSO with a final concentration of at most 1% of DMSO. All experiments were performed at least in three repetitions.
# human mAChR M5 = biological target: T3, human mAChR M5 (Homo sapiens, UniProt P08912); assay: competitive radioligand binding assay with [3H]NMS on CHO cell membranes, M5; conditions: n ≥ 3, ± standard deviation, read-out: Inhibition constants (Ki) M5
# T3 construct: host or cells: CHO-K1
# T3 sequence (P08912 1-532): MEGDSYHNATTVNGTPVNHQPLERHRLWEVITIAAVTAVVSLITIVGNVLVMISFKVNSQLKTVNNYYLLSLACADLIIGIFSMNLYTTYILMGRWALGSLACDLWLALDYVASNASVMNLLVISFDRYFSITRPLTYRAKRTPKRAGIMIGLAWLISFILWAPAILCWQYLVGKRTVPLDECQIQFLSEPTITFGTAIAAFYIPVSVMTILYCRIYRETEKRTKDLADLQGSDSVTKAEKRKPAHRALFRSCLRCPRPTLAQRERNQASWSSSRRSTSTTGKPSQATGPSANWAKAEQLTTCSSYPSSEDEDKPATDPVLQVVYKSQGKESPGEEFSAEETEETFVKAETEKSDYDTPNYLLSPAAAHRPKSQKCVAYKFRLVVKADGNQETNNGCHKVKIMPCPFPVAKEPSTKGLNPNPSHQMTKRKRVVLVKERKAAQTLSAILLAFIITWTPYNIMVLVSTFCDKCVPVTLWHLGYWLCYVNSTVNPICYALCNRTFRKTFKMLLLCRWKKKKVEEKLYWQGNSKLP
# Protocol: as §1, §2
# mAChR M1 [2] = biological target: T2, mAChR M1; assay: competitive radioligand binding assay with [3H]NMS on CHO cell membranes, M1; conditions: for Ki: CHO cell membranes, [3H]NMS, n ≥ 3, ± standard deviation, read-out: Inhibition constants (Ki) M1
# Protocol: as §1, §2
# human mAChR M3 = biological target: T4, human mAChR M3 (Homo sapiens, UniProt P20309); assay: competitive radioligand binding assay with [3H]NMS on CHO cell membranes, M3; conditions: n ≥ 3, ± standard deviation, read-out: Inhibition constants (Ki) M3
# T4 construct: host or cells: CHO-K1
# T4 sequence (P20309 whole entry): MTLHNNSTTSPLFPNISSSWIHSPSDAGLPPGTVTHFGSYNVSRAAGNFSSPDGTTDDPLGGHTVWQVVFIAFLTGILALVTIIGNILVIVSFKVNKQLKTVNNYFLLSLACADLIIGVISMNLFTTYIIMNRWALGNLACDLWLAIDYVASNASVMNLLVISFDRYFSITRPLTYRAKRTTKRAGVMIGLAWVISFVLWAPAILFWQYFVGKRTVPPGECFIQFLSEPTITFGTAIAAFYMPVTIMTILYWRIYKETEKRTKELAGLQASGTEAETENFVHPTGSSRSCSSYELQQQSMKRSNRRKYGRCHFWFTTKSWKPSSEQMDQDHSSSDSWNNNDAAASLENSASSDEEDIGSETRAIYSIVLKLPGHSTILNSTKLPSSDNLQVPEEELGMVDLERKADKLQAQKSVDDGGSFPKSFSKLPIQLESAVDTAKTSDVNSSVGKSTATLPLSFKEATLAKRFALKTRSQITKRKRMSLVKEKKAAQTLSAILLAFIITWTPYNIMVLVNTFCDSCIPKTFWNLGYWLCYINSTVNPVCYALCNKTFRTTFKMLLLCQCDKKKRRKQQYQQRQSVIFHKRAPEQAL
# Protocol: as §1, §2
# human mAChR M2 = biological target: T5, human mAChR M2 (Homo sapiens, UniProt P08172); assay: competitive radioligand binding assay with [3H]NMS on CHO cell membranes, M2; conditions: n ≥ 3, ± standard deviation, read-out: Inhibition constants (Ki) M2
# T5 construct: host or cells: CHO-K1
# T5 sequence (P08172 1-466): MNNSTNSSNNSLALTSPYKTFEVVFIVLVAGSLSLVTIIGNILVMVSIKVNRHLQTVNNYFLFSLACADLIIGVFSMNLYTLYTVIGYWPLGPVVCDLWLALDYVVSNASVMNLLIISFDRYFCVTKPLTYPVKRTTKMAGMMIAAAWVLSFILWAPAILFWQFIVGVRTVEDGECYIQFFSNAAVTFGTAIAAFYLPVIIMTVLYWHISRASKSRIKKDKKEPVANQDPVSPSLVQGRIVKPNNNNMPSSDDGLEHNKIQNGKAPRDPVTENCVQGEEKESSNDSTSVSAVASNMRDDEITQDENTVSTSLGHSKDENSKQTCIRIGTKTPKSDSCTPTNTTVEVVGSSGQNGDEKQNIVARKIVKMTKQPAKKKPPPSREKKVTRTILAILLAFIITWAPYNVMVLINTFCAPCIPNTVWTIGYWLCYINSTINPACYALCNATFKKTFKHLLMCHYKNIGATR
# Protocol: as §1, §2
# [3] = stability in Ham's F12 cell culture medium at 37 °C (UV-HPLC); format: physicochemical; conditions: for decomposed after 2 h: linear interpolation between 0 h and 10 h
# Protocol: (§4) First, 1089 µL DPBS or Ham’s F12 nutrient mixture were mixed with 11 µL of 10 mM stock solution of 1, 2, or 3 in DMSO (final DMSO content: 1%) and agitated at 37 °C. Then, 80 µL of the solution was analyzed by UV-HPLC (216 nm) using an XSelect™ (HSS T3, 3.5 μm, 100 × 4.6 mm) stationary phase and 40% acetonitrile in 25 mM (NH4)H2PO4 buffer (pH 9.3) at a flow of 1 mL/min (k1,2 = 5.6, k3 = 5.9). The fraction of stable compounds was calculated as the area under the curve of the compound peak for each combination of compound and matrix related to the 0 h time point with 100%. Three non-consecutive HPLC analyses were performed for each time point, combination of compounds, and matrix.
# mAChR M1 [4] = biological target: T2, mAChR M1; assay: Fluo-4 direct calcium assay, agonist mode, CHO-M1 cells; format: cell-based; conditions: 0.001-100 µM
# Protocol: as §3
# HPLC-logP determination = format: physicochemical; conditions: HPLC on apHERA stationary phase (5 µm, 10 × 6 mm), pH 7.4; read-out: HPLC-logPow pH7.4
# [5] = stability in DPBS at 37 °C (UV-HPLC); format: physicochemical; conditions: for decomposition after 60 h: Sidak's multiple comparisons test; for decomposed after 2 h: linear interpolation between 0 h and 10 h
# Protocol: as §4
# [6] = pH 7.4; cited from earlier work
SMILES,Ki (human mAChR M4) [nM],functionality (block of calcium response to carbachol) (mAChR M1 [1]),Ki (human mAChR M5) [nM],Ki (mAChR M1 [2]) [nM],Ki (human mAChR M3) [nM],Ki (human mAChR M2) [nM],decomposed after 2 h [3] [%],calcium release (agonistic activity) (mAChR M1 [4]),chromatographic logD (HPLC-logP determination),decomposition after 60 h [5],decomposed after 2 h [5] [%],selectivity between M1 and M2 (mAChR M1 [2]; Ki M2 divided by Ki M1) [fold],"M1 over M4 subtype selectivity (mAChR M1 [2]; Ki M4 divided by Ki M1, Ki values of this work) [fold]",decomposition after 60 h [3],HPLC-logPow pH7.4 [6]
"CN1CCC=C(C(=O)O[C@@H](c2ccccc2)[C@H](O)c2ccccc2)C1 (racemic) [compound 3, Rac. (1S,2R)-2-hydroxy-1,2-diphenylethyl 1-methyl-1,2,5,6-tetrahydropyridine-3-carboxylate]",1600 ± 200,antagonistic binding,970 ± 90,380 ± 90,3200 ± 500,3700 ± 1000,2.5,no increase in calcium release,2.39 ± 0.1,decomposed to the same extent,0.8,,,,
"CN1CCC=C(C(=O)O[C@H](c2ccccc2)[C@H](O)c2ccccc2)C1 [compound 1, (1R,2R)-(+)-2-hydroxy-1,2-diphenylethyl 1-methyl-1,2,5,6-tetrahydropyridine-3-carboxylate]",700 ± 300,antagonistic binding,600 ± 75,99 ± 19,1300 ± 600,1900 ± 300,2.5,no increase in calcium release,2.24 ± 0.12,decomposed to the same extent,0.8,19,7,significantly stronger compared to 2,
CN1CCC=C(C(=O)OC(c2ccccc2)c2ccccc2)C1 [arecaidine diphenylmethyl ester],,,,,,,,,,,,,,,3.32 ± 0.04
"CN1CCC=C(C(=O)O[C@@H](c2ccccc2)[C@@H](O)c2ccccc2)C1 [compound 2, (1S,2S)-(−)-2-hydroxy-1,2-diphenylethyl 1-methyl-1,2,5,6-tetrahydropyridine-3-carboxylate]",2700 ± 600,antagonistic binding,1300 ± 300,800 ± 200,1600 ± 300,8000 ± 2000,2.5,no increase in calcium release,2.24 ± 0.12,decomposed to the same extent,0.8,,,,
